Experiments:
[1] = test system: volunteers who experience all symptoms of the alcohol reaction; assay: Studies in individuals (Example 5): symptoms of the alcohol reaction after two standard alcohol beverages; type: in vivo, human; conditions: Subject 4; 1500 mg daily for two weeks + dose one hour before two standard alcohol beverages
Procedure: In order to evaluate the efficacy of certain embodiments of the invention, subjects took various forms of the supplements daily for two weeks. The subjects then consumed two standard alcohol beverages and their symptoms were evaluated. One hour prior to drinking the alcohol beverages, the subjects also consumed another dose of the formulation. Overt physical symptoms and self-reported physical symptoms were used as assessments for the alcohol reaction. These experimental tests include eleven subjects. All experimental subjects were unpaid volunteers who experience all symptoms of the alcohol reaction. The following symptoms were assessed: facial redness, heart rate, self-evaluated body temperature, headache, nausea, and general physical discomfort. These are symptoms of the alcohol reaction that have all been directly linked with an increase in blood acetaldehyde.

NAD = conditions: nicotinamide supplementation; one study; cited from earlier work
glutathione = conditions: supplementation, two weeks; cited from earlier work

| Compound | facial redness [1] | heart rate [1] | raising NAD concentrations (NAD) [fold] | increase levels of glutathione (glutathione) [%] |
| --- | --- | --- | --- | --- |
| NC(=O)c1cccnc1 [nicotinamide] | reductions | reductions | 24 | – |
| O=C1O[C@H]([C@@H](O)CO)C(O)=C1O [Vitamin C] | – | – | – | 50 |

Reference: patent US20160346266A1, “REDUCTION OR PREVENTION OF ALCOHOL REACTION WITH DIETARY SUPPLEMENTS” (NOGLO LLC, priority 2012, published 2016)
